Measured values taken from PMC4685510, “A Cell Biologist’s Field Guide to Aurora Kinase Inhibitors” (Frontiers in Oncology, 2015).

Key:
Experiment in all cases: biochemical
Assay type in all cases: biochemical
[1] = molecular target: 363 human kinases (including Aurora A/B/C) (Homo sapiens, UniProt P31749); settings: AKT1, [ATP] 100 µM; for remaining activity at 0.1 µM: 100 nM; for remaining activity at 0.1 µM / remaining activity at 0.5 µM: read-out: % Enzyme Activity (relative to DMSO controls)
363 human kinases (including Aurora A/B/C) (Homo sapiens, UniProt P31749), sequence (P31749 whole entry): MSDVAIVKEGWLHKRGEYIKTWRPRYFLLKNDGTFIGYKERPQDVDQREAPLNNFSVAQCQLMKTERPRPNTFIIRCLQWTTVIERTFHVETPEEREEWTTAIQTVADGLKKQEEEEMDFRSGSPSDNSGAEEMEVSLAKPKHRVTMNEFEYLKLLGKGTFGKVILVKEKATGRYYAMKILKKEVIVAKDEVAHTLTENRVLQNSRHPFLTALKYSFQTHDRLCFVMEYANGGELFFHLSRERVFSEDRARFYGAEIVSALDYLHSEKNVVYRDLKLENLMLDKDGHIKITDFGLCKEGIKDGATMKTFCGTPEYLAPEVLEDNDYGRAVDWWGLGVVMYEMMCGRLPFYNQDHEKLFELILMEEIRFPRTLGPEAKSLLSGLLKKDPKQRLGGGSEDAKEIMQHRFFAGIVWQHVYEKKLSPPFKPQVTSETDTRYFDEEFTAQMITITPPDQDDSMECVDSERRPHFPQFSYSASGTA
Description: (§1) However, the Aurora A/B selectivity ratios derived from our in vitro and in vivo data can be compared to prioritize inhibitors.

[2] = molecular target: T1, 363 human kinases (including Aurora A/B/C) (Homo sapiens, UniProt O14733); settings: MKK7; for remaining activity at 0.1 µM: 100 nM; for remaining activity at 0.1 µM / remaining activity at 0.5 µM: read-out: % Enzyme Activity (relative to DMSO controls)
T1 sequence (O14733 1-419): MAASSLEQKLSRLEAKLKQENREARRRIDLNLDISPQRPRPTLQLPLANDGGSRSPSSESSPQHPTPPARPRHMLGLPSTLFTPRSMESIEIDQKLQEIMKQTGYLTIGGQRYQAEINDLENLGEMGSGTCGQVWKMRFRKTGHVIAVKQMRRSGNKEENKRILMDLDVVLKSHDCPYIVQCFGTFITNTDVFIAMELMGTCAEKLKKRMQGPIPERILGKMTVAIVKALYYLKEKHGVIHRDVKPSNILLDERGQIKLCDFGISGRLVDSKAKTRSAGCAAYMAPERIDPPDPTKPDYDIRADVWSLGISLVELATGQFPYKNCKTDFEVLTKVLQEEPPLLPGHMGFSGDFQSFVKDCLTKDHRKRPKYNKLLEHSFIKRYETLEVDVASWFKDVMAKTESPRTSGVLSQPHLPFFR
Description: as §1

[3] = molecular target: 363 human kinases (including Aurora A/B/C) (Homo sapiens, UniProt Q9H0K1); settings: SIK2; for remaining activity at 0.1 µM: 100 nM; for remaining activity at 0.1 µM / remaining activity at 0.5 µM: read-out: % Enzyme Activity (relative to DMSO controls)
363 human kinases (including Aurora A/B/C) (Homo sapiens, UniProt Q9H0K1), sequence (Q9H0K1 whole entry): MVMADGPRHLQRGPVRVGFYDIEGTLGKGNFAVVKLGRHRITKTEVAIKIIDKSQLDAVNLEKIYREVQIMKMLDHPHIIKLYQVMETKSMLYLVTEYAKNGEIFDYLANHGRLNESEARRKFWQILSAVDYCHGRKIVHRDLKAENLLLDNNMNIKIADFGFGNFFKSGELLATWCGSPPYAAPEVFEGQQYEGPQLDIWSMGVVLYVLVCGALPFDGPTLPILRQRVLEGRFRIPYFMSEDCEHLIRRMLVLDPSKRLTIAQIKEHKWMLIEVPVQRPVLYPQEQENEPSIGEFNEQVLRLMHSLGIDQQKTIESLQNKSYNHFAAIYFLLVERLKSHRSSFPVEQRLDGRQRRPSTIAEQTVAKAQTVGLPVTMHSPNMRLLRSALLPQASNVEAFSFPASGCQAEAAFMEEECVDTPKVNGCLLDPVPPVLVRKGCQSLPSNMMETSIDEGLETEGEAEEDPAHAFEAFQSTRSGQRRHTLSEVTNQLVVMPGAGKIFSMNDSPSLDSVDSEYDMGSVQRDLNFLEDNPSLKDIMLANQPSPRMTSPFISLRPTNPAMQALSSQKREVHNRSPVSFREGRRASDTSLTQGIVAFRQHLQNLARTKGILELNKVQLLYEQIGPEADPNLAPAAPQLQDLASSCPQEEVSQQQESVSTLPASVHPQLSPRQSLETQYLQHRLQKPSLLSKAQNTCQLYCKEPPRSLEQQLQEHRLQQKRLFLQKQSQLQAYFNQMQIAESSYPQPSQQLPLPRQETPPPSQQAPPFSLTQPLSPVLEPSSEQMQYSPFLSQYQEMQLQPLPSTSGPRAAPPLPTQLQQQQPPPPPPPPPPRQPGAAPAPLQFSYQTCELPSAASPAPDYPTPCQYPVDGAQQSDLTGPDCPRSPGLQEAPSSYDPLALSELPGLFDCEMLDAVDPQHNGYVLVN
Description: as §1

[4] = molecular target: 363 human kinases (including Aurora A/B/C) (Homo sapiens, UniProt Q16816); settings: PHKg1; for remaining activity at 0.1 µM: 100 nM; for remaining activity at 0.1 µM / remaining activity at 0.5 µM: read-out: % Enzyme Activity (relative to DMSO controls)
363 human kinases (including Aurora A/B/C) (Homo sapiens, UniProt Q16816), sequence (Q16816 whole entry): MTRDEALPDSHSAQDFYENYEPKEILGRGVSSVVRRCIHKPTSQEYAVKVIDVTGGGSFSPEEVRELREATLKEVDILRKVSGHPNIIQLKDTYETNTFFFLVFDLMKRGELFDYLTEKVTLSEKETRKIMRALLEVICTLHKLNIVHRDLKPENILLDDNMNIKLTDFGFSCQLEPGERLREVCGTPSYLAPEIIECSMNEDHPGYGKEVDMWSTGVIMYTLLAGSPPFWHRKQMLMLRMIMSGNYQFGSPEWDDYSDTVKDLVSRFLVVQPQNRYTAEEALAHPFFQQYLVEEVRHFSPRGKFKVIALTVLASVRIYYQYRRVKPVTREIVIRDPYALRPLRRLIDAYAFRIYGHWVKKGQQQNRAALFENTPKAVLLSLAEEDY
Description: as §1

[5] = molecular target: T2, 363 human kinases (including Aurora A/B/C) (Homo sapiens, UniProt P21709); settings: EPHA1, [ATP] 20 µM; for remaining activity at 0.1 µM: 100 nM; for remaining activity at 0.1 µM / remaining activity at 0.5 µM: read-out: % Enzyme Activity (relative to DMSO controls)
T2 sequence (P21709 26-976): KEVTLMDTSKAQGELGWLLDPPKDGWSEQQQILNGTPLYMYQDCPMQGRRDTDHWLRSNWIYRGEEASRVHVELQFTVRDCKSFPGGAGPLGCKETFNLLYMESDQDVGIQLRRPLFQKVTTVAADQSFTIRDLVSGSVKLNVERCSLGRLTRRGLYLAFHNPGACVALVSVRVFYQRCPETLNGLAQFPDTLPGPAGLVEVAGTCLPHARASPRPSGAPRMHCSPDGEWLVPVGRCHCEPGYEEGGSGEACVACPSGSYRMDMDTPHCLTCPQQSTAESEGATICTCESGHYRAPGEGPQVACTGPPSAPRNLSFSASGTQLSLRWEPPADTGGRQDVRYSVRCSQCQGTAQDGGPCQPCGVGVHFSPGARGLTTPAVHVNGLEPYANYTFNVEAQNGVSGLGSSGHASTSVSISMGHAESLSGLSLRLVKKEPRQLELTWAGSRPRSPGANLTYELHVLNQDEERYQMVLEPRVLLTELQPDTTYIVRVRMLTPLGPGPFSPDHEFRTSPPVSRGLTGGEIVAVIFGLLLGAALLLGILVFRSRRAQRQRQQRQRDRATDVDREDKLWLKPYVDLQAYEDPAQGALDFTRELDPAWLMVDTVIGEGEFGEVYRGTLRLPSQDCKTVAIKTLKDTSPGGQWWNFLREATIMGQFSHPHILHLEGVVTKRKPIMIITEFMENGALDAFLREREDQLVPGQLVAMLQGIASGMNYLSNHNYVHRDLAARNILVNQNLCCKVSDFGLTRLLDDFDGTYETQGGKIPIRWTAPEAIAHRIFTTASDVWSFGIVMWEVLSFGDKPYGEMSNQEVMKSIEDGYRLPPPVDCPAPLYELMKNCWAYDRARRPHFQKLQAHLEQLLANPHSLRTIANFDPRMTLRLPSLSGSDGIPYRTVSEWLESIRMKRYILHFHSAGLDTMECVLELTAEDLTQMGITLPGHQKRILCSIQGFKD
Description: as §1

[6] = molecular target: T3, 363 human kinases (including Aurora A/B/C) (Homo sapiens, UniProt P43403); settings: ZAP70; for remaining activity at 0.1 µM: 100 nM; for remaining activity at 0.1 µM / remaining activity at 0.5 µM: read-out: % Enzyme Activity (relative to DMSO controls)
T3 sequence (P43403 1-619): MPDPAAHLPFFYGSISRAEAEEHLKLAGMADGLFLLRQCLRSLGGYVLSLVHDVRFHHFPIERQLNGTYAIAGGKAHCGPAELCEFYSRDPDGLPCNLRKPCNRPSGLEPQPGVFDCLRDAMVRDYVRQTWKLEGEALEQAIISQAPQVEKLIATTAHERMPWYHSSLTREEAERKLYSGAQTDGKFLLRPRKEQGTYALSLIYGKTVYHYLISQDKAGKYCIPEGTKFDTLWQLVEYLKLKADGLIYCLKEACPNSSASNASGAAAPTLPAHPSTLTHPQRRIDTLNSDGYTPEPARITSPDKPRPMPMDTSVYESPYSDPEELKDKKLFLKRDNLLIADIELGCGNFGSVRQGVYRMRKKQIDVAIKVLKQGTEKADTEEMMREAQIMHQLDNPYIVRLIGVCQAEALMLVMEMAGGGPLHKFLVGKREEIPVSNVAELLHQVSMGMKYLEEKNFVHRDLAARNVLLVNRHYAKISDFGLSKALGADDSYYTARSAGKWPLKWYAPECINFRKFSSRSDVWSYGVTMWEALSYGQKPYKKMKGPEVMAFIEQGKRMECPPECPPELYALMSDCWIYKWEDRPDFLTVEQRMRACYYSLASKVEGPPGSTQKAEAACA
Description: as §1

[7] = molecular target: T4, 363 human kinases (including Aurora A/B/C) (Homo sapiens, UniProt P46734); settings: MEK3; for remaining activity at 0.1 µM: 100 nM; for remaining activity at 0.1 µM / remaining activity at 0.5 µM: read-out: % Enzyme Activity (relative to DMSO controls)
T4 sequence (P46734 1-347): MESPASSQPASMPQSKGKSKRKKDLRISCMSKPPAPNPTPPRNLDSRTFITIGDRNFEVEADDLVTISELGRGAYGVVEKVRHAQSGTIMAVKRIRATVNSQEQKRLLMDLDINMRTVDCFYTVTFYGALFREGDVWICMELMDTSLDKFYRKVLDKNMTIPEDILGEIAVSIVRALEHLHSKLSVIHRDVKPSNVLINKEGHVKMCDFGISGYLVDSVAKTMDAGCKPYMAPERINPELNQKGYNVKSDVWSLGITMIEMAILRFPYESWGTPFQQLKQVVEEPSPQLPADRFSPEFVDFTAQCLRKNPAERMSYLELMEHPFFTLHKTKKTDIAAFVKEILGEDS
Description: as §1

[8] = molecular target: 363 human kinases (including Aurora A/B/C) (Homo sapiens, UniProt Q9Y2K2); settings: SIK3; for remaining activity at 0.1 µM: 100 nM; for remaining activity at 0.1 µM / remaining activity at 0.5 µM: read-out: % Enzyme Activity (relative to DMSO controls)
363 human kinases (including Aurora A/B/C) (Homo sapiens, UniProt Q9Y2K2), sequence (Q9Y2K2 whole entry): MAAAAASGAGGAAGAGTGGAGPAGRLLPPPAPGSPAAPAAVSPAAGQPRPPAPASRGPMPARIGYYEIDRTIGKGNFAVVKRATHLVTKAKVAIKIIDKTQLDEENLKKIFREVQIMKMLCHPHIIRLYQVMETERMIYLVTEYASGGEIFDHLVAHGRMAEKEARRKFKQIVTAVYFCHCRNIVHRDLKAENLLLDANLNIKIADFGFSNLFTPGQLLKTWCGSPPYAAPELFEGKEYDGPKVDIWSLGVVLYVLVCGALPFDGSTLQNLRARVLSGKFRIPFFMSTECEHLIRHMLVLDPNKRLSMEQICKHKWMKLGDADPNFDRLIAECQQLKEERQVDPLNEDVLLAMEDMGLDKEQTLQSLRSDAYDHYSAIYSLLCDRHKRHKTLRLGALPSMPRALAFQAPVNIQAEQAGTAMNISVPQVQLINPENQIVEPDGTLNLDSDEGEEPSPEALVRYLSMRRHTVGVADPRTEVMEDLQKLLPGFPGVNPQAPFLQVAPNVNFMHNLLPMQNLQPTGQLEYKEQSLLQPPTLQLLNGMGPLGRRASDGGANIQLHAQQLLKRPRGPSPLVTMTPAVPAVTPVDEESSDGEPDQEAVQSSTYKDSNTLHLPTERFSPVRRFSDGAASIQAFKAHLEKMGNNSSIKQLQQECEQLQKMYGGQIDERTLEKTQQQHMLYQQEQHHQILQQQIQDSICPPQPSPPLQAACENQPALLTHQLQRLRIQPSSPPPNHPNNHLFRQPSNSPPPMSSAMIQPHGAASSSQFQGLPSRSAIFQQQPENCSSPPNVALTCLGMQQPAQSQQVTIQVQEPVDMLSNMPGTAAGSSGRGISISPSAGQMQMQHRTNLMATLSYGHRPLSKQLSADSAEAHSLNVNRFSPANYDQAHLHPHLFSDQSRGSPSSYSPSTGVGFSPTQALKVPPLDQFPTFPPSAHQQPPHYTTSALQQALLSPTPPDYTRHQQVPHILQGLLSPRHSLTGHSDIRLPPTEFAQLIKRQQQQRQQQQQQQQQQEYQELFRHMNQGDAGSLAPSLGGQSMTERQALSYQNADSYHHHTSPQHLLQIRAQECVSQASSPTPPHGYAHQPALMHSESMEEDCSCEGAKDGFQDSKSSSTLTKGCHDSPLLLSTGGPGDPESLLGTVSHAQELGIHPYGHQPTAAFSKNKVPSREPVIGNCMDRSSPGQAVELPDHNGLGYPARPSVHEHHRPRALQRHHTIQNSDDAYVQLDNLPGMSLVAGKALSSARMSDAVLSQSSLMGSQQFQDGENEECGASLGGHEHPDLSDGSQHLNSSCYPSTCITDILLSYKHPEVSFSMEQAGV
Description: as §1

[9] = molecular target: 363 human kinases (including Aurora A/B/C) (Homo sapiens, UniProt P53667); settings: LIMK1; for remaining activity at 0.1 µM: 100 nM; for remaining activity at 0.1 µM / remaining activity at 0.5 µM: read-out: % Enzyme Activity (relative to DMSO controls)
363 human kinases (including Aurora A/B/C) (Homo sapiens, UniProt P53667), sequence (P53667 whole entry): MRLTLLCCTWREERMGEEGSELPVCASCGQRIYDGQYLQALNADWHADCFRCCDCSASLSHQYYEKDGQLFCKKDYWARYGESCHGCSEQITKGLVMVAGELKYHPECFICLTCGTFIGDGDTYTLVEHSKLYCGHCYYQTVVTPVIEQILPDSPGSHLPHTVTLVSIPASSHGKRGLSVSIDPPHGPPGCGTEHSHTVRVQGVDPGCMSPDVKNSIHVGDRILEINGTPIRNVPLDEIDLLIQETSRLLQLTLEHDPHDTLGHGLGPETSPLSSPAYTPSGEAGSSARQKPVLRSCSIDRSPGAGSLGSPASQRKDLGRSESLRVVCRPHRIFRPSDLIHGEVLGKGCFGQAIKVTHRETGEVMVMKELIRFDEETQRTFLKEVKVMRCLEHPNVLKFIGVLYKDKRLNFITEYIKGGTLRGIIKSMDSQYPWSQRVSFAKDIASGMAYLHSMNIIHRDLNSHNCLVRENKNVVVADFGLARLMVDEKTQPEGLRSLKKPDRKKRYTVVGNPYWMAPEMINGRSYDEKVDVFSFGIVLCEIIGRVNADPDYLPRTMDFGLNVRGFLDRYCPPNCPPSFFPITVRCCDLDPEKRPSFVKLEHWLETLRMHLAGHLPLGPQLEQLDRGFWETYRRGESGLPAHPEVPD
Description: as §1

Compound	remaining activity at 0.1 µM [1] [%]	remaining activity at 0.1 µM [2] [%]	remaining activity at 0.1 µM [3] [%]	remaining activity at 0.1 µM [4] [%]	remaining activity at 0.1 µM [5] [%]	remaining activity at 0.1 µM [6] [%]	remaining activity at 0.1 µM [7] [%]	remaining activity at 0.1 µM [8] [%]	remaining activity at 0.1 µM [9] [%]	remaining activity at 0.5 µM ([1]; 500 nM) [%]	remaining activity at 0.5 µM ([2]; 500 nM) [%]	remaining activity at 0.5 µM ([3]; 500 nM) [%]	remaining activity at 0.5 µM ([4]; 500 nM) [%]	remaining activity at 0.5 µM ([5]; 500 nM) [%]	remaining activity at 0.5 µM ([6]; 500 nM) [%]	remaining activity at 0.5 µM ([7]; 500 nM) [%]	remaining activity at 0.5 µM ([8]; 500 nM) [%]	remaining activity at 0.5 µM ([9]; 500 nM) [%]	further results
CCn1cc(-c2ccnc3[nH]c(-c4cccc(CN(C)C)c4)cc23)c(-c2ccc(NC(=O)N(C)C)cc2)n1 [GSK1070916]	105	95.4	40	95.6	85.1	105	105	87.8	96.8	–	–	–	–	–	–	–	–	–	–
O=C(O)[C@]1(Cc2cccc(Nc3nccs3)n2)CC[C@@H](Oc2cccc(Cl)c2F)CC1 [MK-5108]	116	99.5	96.5	99.1	47.6	103	89.7	97.3	96.9	102	101	93.3	82	19.1	113	99.7	103	69	–
O=C(c1cccc(Cl)c1F)N1CCN(Cc2cccc(Nc3nccs3)n2)CC1 [MK-8745]	–	–	–	–	–	–	–	–	–	97.4	98	98.7	93.3	58.3	109	75.7	93.5	101	% Enzyme Activity (relative to DMSO controls) ([1]; 500 nM): 95.86%; % Enzyme Activity (relative to DMSO controls) ([2]; 500 nM): 95.34%; % Enzyme Activity (relative to DMSO controls) ([3]; 500 nM): 96.62%; % Enzyme Activity (relative to DMSO controls) ([4]; 500 nM): 90.90%; % Enzyme Activity (relative to DMSO controls) ([5]; 500 nM): 58.24%; % Enzyme Activity (relative to DMSO controls) ([6]; 500 nM): 97.69%; % Enzyme Activity (relative to DMSO controls) ([7]; 500 nM): 72.05%; % Enzyme Activity (relative to DMSO controls) ([8]; 500 nM): 91.26%; % Enzyme Activity (relative to DMSO controls) ([9]; 500 nM): 99.25%
